Laboratory results from patent US20250243233A1, “BIOBASED SURFACTANTS” (ECOLE POLYTECHNIQUE FEDERALE DE LAUSANNE (EPFL), priority 2022, published 2025).

Tests used:
Format in all cases: physicochemical
[1] = Interfacial tension measurements, water/oil pendant drop test (CMC from interfacial tension-concentration graph)
Experimental: To test the amphiphilic properties of each molecule, we measured the water/oil interfacial tension using pendant drop test. In a typical test, we inject the organic solution with surfactants slowly into the water phase with a bent needle with 1 mm diameter. The interfacial tension is calculated by the force balance with the buoyancy force. The critical micelle concentration (CMC) can be obtained by checking the critical point of interfacial tension-concentration graph. […] The CMC of MAX10 and MAX8 are around 2.5 mg/mL.

[2] = Emulsion stability measurements (water/cyclohexane emulsions, bright-field microscope); conditions: water/oil emulsion (67% water and 33% cyclohexane) containing 1% surfactant, FIG. 2
Experimental: The emulsions were prepared by mixing 1 ml of water (with 1 mg/ml of Acian blue dye) and 2 ml cyclohexane containing 3,5-O-dodecylidene-xylose or 2-((dodecyloxy)methyl) tetrahydrofuran-3,4-diol) at a concentration of 0.1% and then mixed by vortex for 30 s.
Emulsions were characterized using a bright-field microscope (Leitz Ergolux) during the storage after preparation. […] Besides, a water/oil emulsion (67% water and 33% cyclohexane) containing 1% 3,5-O-dodecylidene-xylose was kept for about 1 year to observe its possible destablization.

[3] = Accelerated aqueous decomposition test (boiling in water, HPLC); conditions: FIG. 16
Experimental: HPLC analyses for the accelerated aqueous decomposition of MAXn were performed using a HPX-87H Column (300 mm×7.8 mm; column temperature=60° C.) using pH 2 water as eluent (flow rate=0.6 ml·min^−1, Vinj=20 μL) with 1260 Refractive Index Detector (RID) (G1362A)
To gain insight into the degradation products of 1,2-O-dodecylidene-xylose (MAX12) in water, an accelerating aging test was performed by boiling it in water. Samples were taken at various time points and analyzed by HPLC (pH2 aqueous-phase chromatography, HPX-87H Column (300 mm×7.8 mm; 125-0140), 1260 Refractive Index Detector (RID) (G1362A), flow rate=0.6 ml·min^−1, Vinj=20 μL, column temperature=60° C.). […] And to our knowledge, fatty aldehydes can be oxidized into fatty acids catalyzed by the aldehyde dehydrogenase enzyme. Xylose and fatty acids are readily biodegradable.

[4] = quick emulsion test in ethyl acetate and water; conditions: non-miscible system of ethyl acetate and water, mixture neutralized until pH 7, FIG. 1a
Source text: The mixture was neutralized until pH 7, and dissolved in a non-miscible system of ethyl acetate and water to do a quick emulsion test.

[5] = water/oil interfacial tension, FIG. 7

For 3,5-O-decylidene-xylose [MAX10], the “critical micelle concentration (CMC)” value [1, 5] was “around 2.5 mg/mL”.
In the case of 3,5-O-dodecylidene-xylose [MAX12], the “state of emulsion after about 1 year storage” value [2] is reported as “most of the volume maintained the form of emulsion”, the “critical micelle concentration (CMC)” value [1, 5] is reported as 0.35 mg/mL and the “time to cleavage into xylose and fatty aldehyde” value [3] is reported as 2 days.
For 3,5-O-octylidene-xylose [MAX8], the “critical micelle concentration (CMC)” value [1, 5] was “around 2.5 mg/mL”.
For `CCCCCCCCO` [1-octanol], the “phase separation / formation of emulsion” value [4] was “phase separated”.
In the case of `CCCCCCCCCCCCOCC1OCC(O)C1O` (centres unmarked) [2-((dodecyloxy)methyl)tetrahydrofuran-3,4-diol], the “interfacial tension plateau value” ([1]; cyclohexane/water) is reported as “about 1.0 mN/m” and the “critical micelle concentration (CMC)” value ([1]; cyclohexane/water, FIG. 8) is reported as “around 0.5 g/L”.
